Reference: patent publication US11524966B1 (Valo Early Discovery, Inc., priority 2017, dated 2022)

What follows are molecules tested against T1, USP28 (His-tagged USP28-FL-mammalian) (Homo sapiens, UniProt Q96RU2) (assay: Ubiquitin-Rhodamine 110 Assay for USP28 Activity, Example A-1(a)). Settings: Ubiquitin-Rhodamine 110 assay, Example A-1(a); read-out: USP28 A-1(a) IC50 range.
T1 construct: Expression of USP28 (1-1077)-TEV-6*His (pTT5 vector); made in house; host or cells: Expi293f cells (pTT5 vector)
T1 sequence (Q96RU2 1-1077): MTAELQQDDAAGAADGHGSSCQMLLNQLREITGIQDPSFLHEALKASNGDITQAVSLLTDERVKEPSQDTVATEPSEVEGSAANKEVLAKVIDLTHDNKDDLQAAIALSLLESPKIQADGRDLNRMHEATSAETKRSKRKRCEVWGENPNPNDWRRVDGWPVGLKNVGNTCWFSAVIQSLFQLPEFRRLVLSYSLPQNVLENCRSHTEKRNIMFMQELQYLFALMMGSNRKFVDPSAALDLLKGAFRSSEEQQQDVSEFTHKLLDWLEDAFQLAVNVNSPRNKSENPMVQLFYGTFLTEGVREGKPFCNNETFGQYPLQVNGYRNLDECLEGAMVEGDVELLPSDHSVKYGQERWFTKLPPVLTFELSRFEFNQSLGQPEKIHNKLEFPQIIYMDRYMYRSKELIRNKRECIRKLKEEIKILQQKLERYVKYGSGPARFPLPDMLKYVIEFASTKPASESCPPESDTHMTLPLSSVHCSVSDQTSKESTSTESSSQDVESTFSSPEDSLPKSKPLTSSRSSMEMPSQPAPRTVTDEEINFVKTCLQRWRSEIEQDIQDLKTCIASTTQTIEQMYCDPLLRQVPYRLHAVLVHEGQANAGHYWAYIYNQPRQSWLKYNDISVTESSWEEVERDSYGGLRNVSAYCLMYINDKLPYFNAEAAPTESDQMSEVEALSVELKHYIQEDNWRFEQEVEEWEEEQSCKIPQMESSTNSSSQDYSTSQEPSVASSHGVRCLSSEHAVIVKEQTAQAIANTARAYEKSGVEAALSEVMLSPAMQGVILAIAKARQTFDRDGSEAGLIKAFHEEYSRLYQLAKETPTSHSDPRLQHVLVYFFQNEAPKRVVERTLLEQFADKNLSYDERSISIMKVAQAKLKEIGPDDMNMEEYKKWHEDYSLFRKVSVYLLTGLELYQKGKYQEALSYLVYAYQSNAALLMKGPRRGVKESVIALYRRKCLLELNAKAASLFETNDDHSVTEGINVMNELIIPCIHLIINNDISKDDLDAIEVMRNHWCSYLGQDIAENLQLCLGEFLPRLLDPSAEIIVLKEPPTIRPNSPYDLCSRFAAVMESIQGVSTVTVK
Type: biochemical
Outline: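 Full-length His-tagged USP28 (1-1077, Expi293F-expressed; […]) was preincubated 30 min with compound (25 μM–1.3 nM, 10-point 3-fold) in 20 mM Tris-HCl pH 8.0, 3 mM BME, 0.03% BGG, 0.01% Triton X-100. Ub-Rh110 (25 nM) was then added for 45 min at room temperature, stopped with citric acid, and read by fluorescence (485/535 nm).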
In the case of `CN[C@@H]1CN(c2ccc3c(n2)CC[C@H](NC(=O)c2sc4nc(C)ccc4c2N)C3)C[C@]1(C)O` [Example 332, 3-amino-N-[(6S)-2-[(3S,4R)-3-hydroxy-3-methyl-4-(methylamino)pyrrolidin-1-yl]-5,6,7,8-tetrahydroquinolin-6-yl]-6-methylthieno[2,3-b]pyridine-2-carboxamide], the IC50 is reported as 0.05 to 0.2 µM. With `CO[C@H]1CN(c2ccc3c(c2)OC[C@H](NC(=O)c2sc4nc(C)ccc4c2N)C3)[C@@H](C)[C@@H]1N` [Example 333, 3-amino-N-[(3R)-7-[(2S,3S,4S)-3-amino-4-methoxy-2-methylpyrrolidin-1-yl]-3,4-dihydro-2H-1-benzopyran-3-yl]-6-methylthieno[2,3-b]pyridine-2-carboxamide] the IC50 was 0.001 to 0.05 µM. Work on `CO[C@H]1[C@H](N)CN(c2ccc3c(c2)OC[C@H](NC(=O)c2sc4nc(C)ccc4c2N)C3)[C@H]1C` [Example 334, 3-amino-N-[(3R)-7-[(2S,3S,4R)-4-amino-3-methoxy-2-methylpyrrolidin-1-yl]-3,4-dihydro-2H-1-benzopyran-3-yl]-6-methylthieno[2,3-b]pyridine-2-carboxamide] yielded an IC50 of 0.001 to 0.05 µM. Work on `CO[C@@H]1CN(c2ccc3c(c2)OC[C@H](NC(=O)c2sc4nc(C)ccc4c2N)C3)[C@H](C)[C@H]1N` [Example 335, 3-amino-N-[(3R)-7-[(2R,3R,4R)-3-amino-4-methoxy-2-methylpyrrolidin-1-yl]-3,4-dihydro-2H-1-benzopyran-3-yl]-6-methylthieno[2,3-b]pyridine-2-carboxamide] yielded an IC50 of 0.001 to 0.05 µM. In the case of `CO[C@H]1[C@@H](C)N(c2ccc3c(c2)OC[C@H](NC(=O)c2sc4nc(C)ccc4c2N)C3)C[C@@H]1N` [Example 336, 3-amino-N-[(3R)-7-[(2R,3R,4S)-4-amino-3-methoxy-2-methylpyrrolidin-1-yl]-3,4-dihydro-2H-1-benzopyran-3-yl]-6-methylthieno[2,3-b]pyridine-2-carboxamide], the IC50 is reported as 0.001 to 0.05 µM. `Cc1ccc2c(N)c(C(=O)N[C@H]3COc4cc(N5CC6(C5)OCC[C@H]6N)ccc4C3)sc2n1` [Example 337, 3-amino-N-[(3R)-7-[(8R)-8-amino-5-oxa-2-azaspiro[3.4]octan-2-yl]-3,4-dihydro-2H-1-benzopyran-3-yl]-6-methylthieno[2,3-b]pyridine-2-carboxamide] showed an IC50 of 0.001 to 0.05 µM. In the case of `Cc1ccc2c(N)c(C(=O)N[C@H]3COc4cc(N5CC6(C5)OCC[C@@H]6N)ccc4C3)sc2n1` [Example 338, 3-amino-N-[(3R)-7-[(8S)-8-amino-5-oxa-2-azaspiro[3.4]octan-2-yl]-3,4-dihydro-2H-1-benzopyran-3-yl]-6-methylthieno[2,3-b]pyridine-2-carboxamide], the IC50 is reported as 0.05 to 0.2 µM. `Cc1ccc2c(N)c(C(=O)N[C@H]3COc4cc(N5C[C@@H](N)[C@@]6(CCO6)C5)ccc4C3)sc2n1` [Example 339, 3-amino-N-[(3R)-7-[(4R,8R)-8-amino-1-oxa-6-azaspiro[3.4]octan-6-yl]-3,4-dihydro-2H-1-benzopyran-3-yl]-6-methylthieno[2,3-b]pyridine-2-carboxamide] was tested, and the IC50 was 0.001 to 0.05 µM. For `Cc1ccc2c(N)c(C(=O)N[C@H]3COc4cc(N5C[C@H](N)[C@]6(CCO6)C5)ccc4C3)sc2n1` [Example 340, 3-amino-N-[(3R)-7-[(4S,8S)-8-amino-1-oxa-6-azaspiro[3.4]octan-6-yl]-3,4-dihydro-2H-1-benzopyran-3-yl]-6-methylthieno[2,3-b]pyridine-2-carboxamide], the IC50 was 0.001 to 0.05 µM. `COC[C@@]1(C)CN(c2ccc3c(n2)CC[C@H](NC(=O)c2sc4nc(C)ccc4c2N)C3)C[C@@H]1N` [Example 341, 3-amino-N-[(6S)-2-[(3S,4R)-4-amino-3-(methoxymethyl)-3-methylpyrrolidin-1-yl]-5,6,7,8-tetrahydroquinolin-6-yl]-6-methylthieno[2,3-b]pyridine-2-carboxamide] was tested, and the IC50 was 0.05 to 0.2 µM. Work on `COC[C@]1(C)CN(c2ccc3c(n2)CC[C@H](NC(=O)c2sc4nc(C)ccc4c2N)C3)C[C@@H]1N` [Example 342, 3-amino-N-[(6S)-2-[(3R,4R)-4-amino-3-(methoxymethyl)-3-methylpyrrolidin-1-yl]-5,6,7,8-tetrahydroquinolin-6-yl]-6-methylthieno[2,3-b]pyridine-2-carboxamide] yielded an IC50 of 0.05 to 0.2 µM. With `COC[C@]1(C)CN(c2ccc3c(n2)CC[C@H](NC(=O)c2sc4nc(C)ccc4c2N)C3)C[C@H]1N` [Example 344, 3-amino-N-[(6S)-2-[(3R,4S)-4-amino-3-(methoxymethyl)-3-methylpyrrolidin-1-yl]-5,6,7,8-tetrahydroquinolin-6-yl]-6-methylthieno[2,3-b]pyridine-2-carboxamide] the IC50 was 0.05 to 0.2 µM.
